Test results taken from ChEMBL document CHEMBL5523746, “Discovery of Novel Peptide Antagonists Targeting GPR55 for Liver Inflammation and Fibrosis” (2024).
Active and inactive are the calls of the source. Bridge positions count the residues as written; N and C are the ends. Peptide text beside a SMILES is read from it.

Experiments:
Format in all cases: functional, organism-based
[1] = tested on: Mus musculus; assay: In vivo anti-fibrotic activity against methionine and choline-deficient (MCD) diet-induced liver fibrosis C57BL/6J mouse model assessed as reduction in oxidative stress by measuring increase in superoxide dismutase at 150 to 300 microg/kg once daily for 3 weeks by enzyme activity assay; settings: dose 150-300 µg/kg
[2] = tested on: Mus musculus; assay: In vivo anti-fibrotic activity against methionine and choline-deficient (MCD) diet-induced liver fibrosis C57BL/6J mouse model assessed as reduction in inflammation by measuring decrease in Ly6G inflammation marker at 150 to 300 microg/kg once daily for 3 weeks by IHC staining based assay; settings: dose 150-300 µg/kg
[3] = tested on: Mus musculus; assay: In vivo anti-fibrotic activity against CCl4-induced liver fibrosis C57BL/6J mouse model assessed as reduction in ROS treated once daily for 3 weeks by RT-qPCR analysis; settings: dose 150-300 µg/kg
[4] = tested on: Mus musculus; assay: In vivo anti-fibrotic activity against methionine and choline-deficient (MCD) diet-induced liver fibrosis C57BL/6J mouse model assessed as reduction in hepatocyte apoptosis at 150 to 300 microg/kg once daily for 3 weeks by TUNEL assay; settings: dose 150-300 µg/kg
[5] = tested on: Mus musculus; assay: In vivo anti-fibrotic activity against methionine and choline-deficient (MCD) diet-induced liver fibrosis C57BL/6J mouse model assessed as reduction in oxidative stress by measuring decrease in lipid oxidation product MDA at 150 to 300 microg/kg once daily for 3 weeks by enzyme activity assay; settings: dose 150-300 µg/kg
[6] = tested on: Mus musculus; assay: In vivo anti-fibrotic activity against CCl4-induced liver fibrosis C57BL/6J mouse model assessed as decrease in COL1alpha at 150 to 300 microg/kg once daily for 3 weeks by IHC staining based assay; settings: dose 150-300 µg/kg
[7] = tested on: Mus musculus; assay: In vivo anti-fibrotic activity against methionine and choline-deficient (MCD) diet-induced liver fibrosis C57BL/6J mouse model assessed as decrease in inflammatory infiltration and collagen deposition at 150 to 300 microg/kg once daily for 3 weeks by Sirius Red staining based assay; settings: dose 150-300 µg/kg
[8] = tested on: Mus musculus; assay: In vivo anti-fibrotic activity against CCl4-induced liver fibrosis C57BL/6J mouse model assessed as reduction in […] mRNA level at 150 to 300 microg/kg once daily for 3 weeks by RT-qPCR analysis; settings: dose 150-300 µg/kg
[9] = tested on: Mus musculus; assay: In vivo anti-fibrotic activity against CCl4-induced liver fibrosis C57BL/6J mouse model assessed as decrease in steatosis and inflammation at 150 to 300 microg/kg once daily for 3 weeks by H and E staining based assay; settings: dose 150-300 µg/kg
[10] = tested on: Mus musculus; assay: In vivo anti-fibrotic activity against methionine and choline-deficient (MCD) diet-induced liver fibrosis C57BL/6J mouse model assessed as decrease in inflammatory infiltration and collagen deposition at 150 to 300 microg/kg once daily for 3 weeks by H and E staining based assay; settings: dose 150-300 µg/kg
[11] = tested on: Mus musculus; assay: Induction of fatty acid beta-oxidation related gene expression in methionine and choline-deficient (MCD) diet-induced liver fibrosis C57BL/6J mouse model assessed as increase in MCAD mRNA level at 150 to 300 microg/kg once daily for 3 weeks by qPCR analysis; settings: dose 150-300 µg/kg
[12] = tested on: Mus musculus; assay: In vivo anti-fibrotic activity against CCl4-induced liver fibrosis C57BL/6J mouse model assessed as reduction in oxidative stress by measuring increase in catalase at 150 to 300 microg/kg once daily for 3 weeks by enzyme activity assay; settings: dose 150-300 µg/kg
[13] = tested on: Mus musculus; assay: In vivo anti-fibrotic activity against CCl4-induced liver fibrosis C57BL/6J mouse model assessed as decrease in inflammation at 150 to 300 microg/kg once daily for 3 weeks by IHC staining based assay; settings: dose 150-300 µg/kg
[14] = tested on: Mus musculus; assay: In vivo anti-fibrotic activity against CCl4-induced liver fibrosis C57BL/6J mouse model assessed as decrease in pro-apoptotic protein BIM level at 300 microg/kg once daily for 3 weeks by Western blot analysis; settings: dose 300.0 µg/kg
[15] = tested on: Mus musculus; assay: In vivo anti-fibrotic activity against CCl4-induced liver fibrosis C57BL/6J mouse model assessed as increase in anti-apoptotic protein BCL2 level at 300 microg/kg once daily for 3 weeks by Western blot analysis; settings: dose 300.0 µg/kg
[16] = tested on: Mus musculus; assay: In vivo anti-fibrotic activity against CCl4-induced liver fibrosis C57BL/6J mouse model assessed as liver function by measuring decrease in serum amino-transferase (ALT) at 150 to 300 microg/kg once daily for 3 weeks by bio-chemical analysis; settings: dose 150-300 µg/kg
[17] = tested on: Mus musculus; assay: Induction of fatty acid beta-oxidation related gene expression in methionine and choline-deficient (MCD) diet-induced liver fibrosis C57BL/6J mouse model assessed as increase in PPARalpha mRNA level at 150 to 300 microg/kg once daily for 3 weeks by qPCR analysis; settings: dose 150-300 µg/kg
[18] = tested on: Mus musculus; assay: In vivo anti-fibrotic activity against CCl4-induced liver fibrosis C57BL/6J mouse model assessed as liver function by measuring decrease in serum hydroxyproline (HYP) at 150 to 300 microg/kg once daily for 3 weeks by bio-chemical analysis; settings: dose 150-300 µg/kg
[19] = tested on: Mus musculus; assay: In vivo anti-fibrotic activity against CCl4-induced liver fibrosis C57BL/6J mouse model assessed as reduction in hepatocyte apoptosis by measuring decrease in BAX protein level at 300 microg/kg once daily for 3 weeks by TUNEL assay; settings: dose 300.0 µg/kg
[20] = tested on: Mus musculus; assay: In vivo anti-fibrotic activity against CCl4-induced liver fibrosis C57BL/6J mouse model assessed as reduction in oxidative stress by measuring increase in superoxide dismutase at 150 to 300 microg/kg once daily for 3 weeks by enzyme activity assay; settings: dose 150-300 µg/kg
[21] = tested on: Mus musculus; assay: In vivo anti-fibrotic activity against methionine and choline-deficient (MCD) diet-induced liver fibrosis C57BL/6J mouse model assessed as decrease in inflammatory infiltration and collagen deposition at 150 to 300 microg/kg once daily for 3 weeks by ORO staining based assay; settings: dose 150-300 µg/kg
[22] = tested on: Mus musculus; assay: In vivo anti-fibrotic activity against methionine and choline-deficient (MCD) diet-induced liver fibrosis C57BL/6J mouse model assessed as reduction in oxidative stress by measuring increase in catalase at 150 to 300 microg/kg once daily for 3 weeks by enzyme activity assay; settings: dose 150-300 µg/kg
[23] = tested on: Mus musculus; assay: In vivo anti-fibrotic activity against CCl4-induced liver fibrosis C57BL/6J mouse model assessed as decrease in pro-apoptotic protein CHOP level at 300 microg/kg once daily for 3 weeks by Western blot analysis; settings: dose 300.0 µg/kg
[24] = tested on: Mus musculus; assay: Induction of fatty acid beta-oxidation related gene expression in methionine and choline-deficient (MCD) diet-induced liver fibrosis C57BL/6J mouse model assessed as increase in LCAD mRNA level at 150 to 300 microg/kg once daily for 3 weeks by qPCR analysis; settings: dose 150-300 µg/kg
[25] = tested on: Mus musculus; assay: Reduction in fatty acid synthesis related gene expression in methionine and choline-deficient (MCD) diet-induced liver C57BL/6J fibrosis mouse model assessed as reduction in FATP1 mRNA level at 150 to 300 microg/kg once daily for 3 weeks by qPCR analysis; settings: dose 150-300 µg/kg
[26] = tested on: Mus musculus; assay: In vivo anti-fibrotic activity against CCl4-induced liver fibrosis C57BL/6J mouse model assessed as reduction in hepatocyte apoptosis at 300 microg/kg once daily for 3 weeks by TUNEL assay; settings: dose 300.0 µg/kg
[27] = tested on: Mus musculus; assay: In vivo anti-fibrotic activity against methionine and choline-deficient (MCD) diet-induced liver fibrosis C57BL/6J mouse model assessed as reduction in inflammation by measuring decrease in CD68 inflammation marker at 150 to 300 microg/kg once daily for 3 weeks by IHC staining based assay; settings: dose 150-300 µg/kg
[28] = tested on: Mus musculus; assay: In vivo anti-fibrotic activity against CCl4-induced liver fibrosis C57BL/6J mouse model assessed as liver function by measuring decrease in hydroxyproline (HYP) at 150 to 300 microg/kg once daily for 3 weeks by Western blot analysis; settings: dose 150-300 µg/kg

Measured: Activity

CC[C@H](C)[C@@H]1NC(=O)[C@H]([C@@H](C)O)NC(=O)[C@@H]2CCCN2C(=O)[C@H](CO)NC(=O)[C@H](CC(N)=O)NC(=O)[C@H](CCCCN)NC(=O)[C@H](CCCCN)NC(=O)[C@@H](N)CSSC[C@@H](C(=O)O)NC1=O (H-CKKNSPTIC-OH; disulfide 1-9)
active: all assays above
